According to PMC7490411 (Signal Transduction and Targeted Therapy, 2020):

Key:
[1] = system: TMD8 cell (DLBCL)-inoculated xenograft; assay: TMD8 cell subcutaneous xenograft tumor model; type: in vivo
INSR = assay: KINOMEscan; type: binding; conditions: 1000 nM
PAK1 = assay: KINOMEscan; type: binding; conditions: 1000 nM
NLK = assay: KINOMEscan; type: binding; conditions: 1000 nM
PIP5K2B = assay: KINOMEscan; type: binding; conditions: 1000 nM
JNK1 = assay: KINOMEscan; type: binding; conditions: 1000 nM
ULK3 = assay: KINOMEscan; type: binding; conditions: 1000 nM
FYN = assay: KINOMEscan; type: binding; conditions: 1000 nM
EIF2AK1 = assay: KINOMEscan; type: binding; conditions: 1000 nM
CAMK2D = assay: KINOMEscan; type: binding; conditions: 1000 nM
FRK = assay: KINOMEscan; type: binding; conditions: 1000 nM
PKN2 = assay: KINOMEscan; type: binding; conditions: 1000 nM
LCK = assay: KINOMEscan; type: binding; conditions: 1000 nM
HASPIN = assay: KINOMEscan; type: binding; conditions: 1000 nM
EGFR(L858R,T790M) = assay: KINOMEscan; type: binding; conditions: 1000 nM
[2] = system: RSK2(Kin.Dom.1-N-terminal); assay: KINOMEscan; type: binding; conditions: 1000 nM
PKAC-alpha = assay: KINOMEscan; type: binding; conditions: 1000 nM
TTK = assay: KINOMEscan; type: binding; conditions: 1000 nM
MLK2 = assay: KINOMEscan; type: binding; conditions: 1000 nM
TESK1 = assay: KINOMEscan; type: binding; conditions: 1000 nM
ADCK4 = assay: KINOMEscan; type: binding; conditions: 1000 nM
FGFR3(G697C) = assay: KINOMEscan; type: binding; conditions: 1000 nM
MET(M1250T) = assay: KINOMEscan; type: binding; conditions: 1000 nM
MYO3A = assay: KINOMEscan; type: binding; conditions: 1000 nM
EGFR(G719S) = assay: KINOMEscan; type: binding; conditions: 1000 nM
MAP4K4 = assay: KINOMEscan; type: binding; conditions: 1000 nM
LYN = assay: KINOMEscan; type: binding; conditions: 1000 nM
TIE1 = assay: KINOMEscan; type: binding; conditions: 1000 nM
PIM2 = assay: KINOMEscan; type: binding; conditions: 1000 nM
[3] = system: EGFR(L747-S752del, P753S); assay: KINOMEscan; type: binding; conditions: 1000 nM
ABL1-nonphosphorylated = assay: KINOMEscan; type: binding; conditions: 1000 nM
PIK4CB = assay: KINOMEscan; type: binding; conditions: 1000 nM
SgK110 = assay: KINOMEscan; type: binding; conditions: 1000 nM
CSNK1D = assay: KINOMEscan; type: binding; conditions: 1000 nM
CDKL1 = assay: KINOMEscan; type: binding; conditions: 1000 nM
ERK8 = assay: KINOMEscan; type: binding; conditions: 1000 nM
IKK-alpha = assay: KINOMEscan; type: binding; conditions: 1000 nM
AAK1 = assay: KINOMEscan; type: binding; conditions: 1000 nM
TIE2 = assay: KINOMEscan; type: binding; conditions: 1000 nM
ERBB3 = assay: KINOMEscan; type: binding; conditions: 1000 nM
MST1 = assay: KINOMEscan; type: binding; conditions: 1000 nM
ULK1 = assay: KINOMEscan; type: binding; conditions: 1000 nM
LOK = assay: KINOMEscan; type: binding; conditions: 1000 nM
PIK3CD = assay: KINOMEscan; type: binding; conditions: 1000 nM
MERTK = assay: KINOMEscan; type: binding; conditions: 1000 nM
GSK3A = assay: KINOMEscan; type: binding; conditions: 1000 nM
PIK3CA(C420R) = assay: KINOMEscan; type: binding; conditions: 1000 nM
SRPK1 = assay: KINOMEscan; type: binding; conditions: 1000 nM
ERK4 = assay: KINOMEscan; type: binding; conditions: 1000 nM
MUSK = assay: KINOMEscan; type: binding; conditions: 1000 nM
WEE2 = assay: KINOMEscan; type: binding; conditions: 1000 nM
[4] = rat 14-day dose escalation subacute toxicity study; type: in vivo; conditions: rats, up to 800 mg/kg/day, continuous 14 days
Protocol: The subacute toxicity study of CHMFL-BTK-85 was conducted on SD rats, 200g in weight and five weeks in age. All mice were purchased from Gempharmatech Co., Ltd (Nanjing, China). All animals were housed in a specific pathogen-free facility and used according to the animal care regulations of Hefei Institutes of Physical Science Chinese Academy of Sciences. CHMFL-BTK-85 was delivered daily in a HKI solution (0.5% Methocellulose/0.4% Tween 80 in ddH2O) by orally gavage. Body weight was measured daily after CHMFL-BTK-85 treatment.

PFCDPK1(P.falciparum) = assay: KINOMEscan; type: binding; conditions: 1000 nM
EPHA7 = assay: KINOMEscan; type: binding; conditions: 1000 nM

C=CC(=O)Nc1cc(Nc2cc(-c3cccc(NC(=O)c4cc5c(s4)CCCC5)c3C)cn(C)c2=O)ccc1N1CCN(CC)CC1 [CHMFL-BTK-85]
TGI ([1]; TMD8 xenograft, 100 mg/kg/day, 28 days): 96% | toxicity signs in TMD8 xenograft model ([1]; mouse, body weight monitoring): no weight loss or any other obvious signs of toxicity | Percent Control (INSR): 96% | Percent Control (PAK1): 75% | Percent Control (NLK): 100% | Percent Control (PIP5K2B): 100% | Percent Control (JNK1): 100% | Percent Control (ULK3): 100% | Percent Control (FYN): 74% | Percent Control (EIF2AK1): 100% | Percent Control (CAMK2D): 75% | Percent Control (FRK): 19% | Percent Control (PKN2): 81% | Percent Control (LCK): 86% | Percent Control (HASPIN): 100% | Percent Control (EGFR(L858R,T790M)): 99% | Percent Control [2]: 100% | Percent Control (PKAC-alpha): 100% | Percent Control (TTK): 54% | Percent Control (MLK2): 90% | Percent Control (TESK1): 96% | Percent Control (ADCK4): 100% | Percent Control (FGFR3(G697C)): 87% | Percent Control (MET(M1250T)): 95% | Percent Control (MYO3A): 93% | Percent Control (EGFR(G719S)): 88% | Percent Control (MAP4K4): 90% | Percent Control (LYN): 100% | Percent Control (TIE1): 87% | Percent Control (PIM2): 87% | Percent Control [3]: 100% | Percent Control (ABL1-nonphosphorylated): 76% | Percent Control (PIK4CB): 100% | Percent Control (SgK110): 92% | Percent Control (CSNK1D): 82% | Percent Control (CDKL1): 77% | Percent Control (ERK8): 95% | Percent Control (IKK-alpha): 100% | Percent Control (AAK1): 82% | Percent Control (TIE2): 84% | Percent Control (ERBB3): 95% | Percent Control (MST1): 100% | Percent Control (ULK1): 100% | Percent Control (LOK): 100% | Percent Control (PIK3CD): 100% | Percent Control (MERTK): 84% | Percent Control (GSK3A): 94% | Percent Control (PIK3CA(C420R)): 98% | Percent Control (SRPK1): 100% | Percent Control (ERK4): 100% | Percent Control (MUSK): 91% | Percent Control (WEE2): 96% | tolerability in dose escalation study [4]: well tolerated | Percent Control (PFCDPK1(P.falciparum)): 100% | Percent Control (EPHA7): 100%
